Measured values: EP4745138A1, “THIO-GLUTARIMIDO ISOINDOLINONE DERIVATIVE, BIFUNCTIONAL PROTEIN DEGRADER CONTAINING SAME, AND USES THEREOF” (Gluetacs Therapeutics (Shanghai) Co., Ltd., priority 2023, dated 2025)
Where two headings read alike, the source gives them in different places.

Assays:
Tau = experiment: Western blot, target protein degradation in H4 Cell; format: cell-based; settings: substrate protein remaining %, treated at 500 nM and 50 nM, 24 hours
Experimental: (§1) Conventional Western blot assay was performed to evaluate the effects of the compounds of the present disclosure on the expression of target proteins in cells.
(§2) (1) Cell Seeding and Protein Harvesting: The selected cells were processed according to the cell seeding procedure and protein harvesting procedure in Table II-2. Table II-2 Cell Seeding and Protein Harvesting Procedures
(§3) (2) To the collected supernatant, 5X SDS sample loading buffer was added, followed by denaturation at 95°C for 5 minutes. The denatured samples were then separated by SDS-PAGE electrophoresis on a polyacrylamide gel. Proteins were transferred to a nitrocellulose membrane (0.45 µm NC membrane), blocked with blocking buffer at room temperature for 1 hour, and subjected to antibody incubation and development procedures according to the antibody manufacturer's instructions (Cell Signaling Technology).
(§4) Half-Maximal Degradation Concentration value (the drug concentration required for degrading proteins by 50%, abbreviated as DC50) reads method: comparing the grayscale values of Western blot bands from drug-treated samples with those from blank DMSO-treated controls, and identifying the drug concentration range at which the grayscale value is half that of the DMSO-treated control bands.
(§5) DC50 values can be calculated using ImageJ software to measure grayscale values of Western blot bands from drug-treated samples. The concentration-response curve is fitted to estimate the drug concentration corresponding to half the grayscale value.
(§6) Target protein remaining (%) refers to the percentage of target protein remaining in cells after treatment with protein degrader compounds.
(§7) Calculation method for target protein remaining (%): Use ImageJ software to measure grayscale values of Western blot bands from drug (protein degrader)-treated samples. The grayscale value of drug-treated bands is divided by that of internal control protein bands, and the resulting quotient is normalized to obtain the relative percentage of remaining target protein after protein degrader treatment. […]

[1] = molecular target: T1, human Cereblon WT GST-tagged protein (Homo sapiens, UniProt Q96SW2); experiment: CRBN-binding affinity, HTRF (CEREBLON BINDING kit); settings: for inhibition at 0.5 µM: read-out: Inhibition Rate at 0.5 µM (%); for inhibition at 2 µM: read-out: Inhibition Rate at 2 µM (%)
T1 construct: purchased CISBIO 64BDCRBNPEH
Summary of the method: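 cpd (final 2 µM, 0.5 µM; diluent #9 1X) + GST-CRBN WT + thalidomide-Red/anti-GST Eu mix; HTRF readout. Blanks: diluent + PROTAC binding buffer + detection mix.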

HCC827 = experiment: Tumor cell proliferation inhibition (CellTiter-Meiluncell Luminescent Cell Viability Assay); settings: Homo sapiens, 96 hours, Table I-1, designed based on the ALK inhibitors, read-out: Inhibitory activity (IC50, nM) HCC827
Experimental: (§8) The tumor cells used herein were cultured in a cell culture medium listed in table 3 at 37°C in an incubator with 5% CO2. Prior to experimentation, all cell lines used were correctly identified by STR profiling, and tested negative for mycoplasma contamination using a mycoplasma detection kit through routine screenings. Table 3. Tumor cells and cell culture medium used in the present disclosure
(§9) The IC50 values of the compounds of the present disclosure (including the compounds in Table 1, Table 2, and Examples) were determined using the CellTiter-Meiluncell Luminescent Cell Viability Assay Kit from Dalian Meilun Biotech Co., Ltd. The detailed procedure is as follows: Tumor cells were seeded in 96-well cell culture plates at the densities specified in Table 4. On the following day, the test compounds of the present disclosure were subjected to serial dilution. […] Subsequently, 0.5 µL of the test compound dilution was transferred into the 96-well plate containing the cells, with each well containing 100 µL of cell culture medium. […] Into the 96-well plate, the diluted test compounds and corresponding detection reagents were added, resulting in final test compound concentrations of 500 nM and 10 nM, respectively. The experimental procedure is described below using the diluted 2 µM test compound as an example.
(§10) 0.5 µL of the aforementioned diluted compound of the present disclosure (including the compounds in Table 1, Table 2, and Examples) was added to the seeded cells in 100 µL of medium, yielding a final test compound concentration of 10 nM. After the cells were treated with the compounds of the present disclosure for a specified period, the cell viability assay reagent was added to the culture medium according to the kit's instructions to determine cell viability. […] All controls were treated using the same procedure as the compounds of the present disclosure. […] Seeding protocol and treatment time for tumor cells

SR = experiment: as above; settings: Homo sapiens, 96 hours, Table I-1, designed based on the ALK inhibitors, read-out: Inhibitory activity (IC50, nM) SR
Experimental: as §8, §9, §10

A375 = experiment: as above; format: cell-based; settings: Homo sapiens, 96 hours, Table I-2, ALK inhibitors
Summary of the method: (§11)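 Cells were grown at 37°C under 5% CO2, seeded into 96-well plates, and dosed with compound on the next day. After a set treatment period, viability was read by luminescence with the CellTiter-Meiluncell reagent and IC50 values were derived. Final compound concentrations included 500 nM and 10 nM.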

CFPAC-1 = experiment: as above; format: cell-based; settings: Homo sapiens, 96 hours, Table I-2, ALK inhibitors
Summary of the method: as §11

MCF-7 = experiment: as above; format: cell-based; settings: Homo sapiens, 96 hours, Table I-2, ALK inhibitors
Summary of the method: (§12)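 Following overnight seeding, tumor cells received serial compound dilutions to final levels that included 10 nM and 500 nM. Viability was assessed by luminescence at the end of the specified exposure time. Cultures were kept at 37°C with 5% CO2.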

MM.1S = experiment: as above; format: cell-based; settings: Homo sapiens, MM1.S, MM.1S, 96 hours; for inhibition at 0.01 µM: 10 nM, read-out: Inhibition Rate at 10 nM (%); for inhibition at 0.5 µM: 500 nM, read-out: Inhibition Rate at 500 nM (%)
Summary of the method: as §12

MV-4-11 = experiment: as above; format: cell-based; settings: Homo sapiens, 96 hours, Table I-2, ALK inhibitors
Summary of the method: as §12

IRAK4 = molecular target: T2, IRAK4 (Homo sapiens, UniProt Q9NWZ3); experiment: Western blot, target protein degradation in hPBMC Cell; format: cell-based; settings: substrate protein remaining %, treated at 50 nM and 500 nM, 24 hours
T2 construct: endogenous in cells; host or cells: hPBMC
Experimental: as §1, §2, §3, §4, §5, §6
(§13) Calculation method for target protein remaining (%): Use ImageJ software to measure grayscale values of Western blot bands from drug (protein degrader)-treated samples. The grayscale value of drug-treated bands is divided by that of internal control protein bands, and the resulting quotient is normalized to obtain the relative percentage of remaining target protein after protein degrader treatment. Target protein degradation rate(%) = 1−target protein remaining(%). [formula]

AKT = experiment: as above; format: cell-based, Human; settings: substrate protein remaining %, treated at 50 nM and 500 nM, 24 hours
Experimental: as §1, §2, §3, §4, §5, §6, §7

ALK = molecular target: T3, ALK (Homo sapiens, UniProt Q96SW2+Q9HC35+Q9UM73); experiment: Western blot, target protein degradation in H2228 Cell; format: cell-based; settings: substrate protein remaining %, treated at 500 nM and 50 nM, 24 hours
T3 construct: endogenous in cells; host or cells: H2228
Experimental: as §1, §2, §3, §4, §5, §6, §13

T1 sequence (Q96SW2 whole entry): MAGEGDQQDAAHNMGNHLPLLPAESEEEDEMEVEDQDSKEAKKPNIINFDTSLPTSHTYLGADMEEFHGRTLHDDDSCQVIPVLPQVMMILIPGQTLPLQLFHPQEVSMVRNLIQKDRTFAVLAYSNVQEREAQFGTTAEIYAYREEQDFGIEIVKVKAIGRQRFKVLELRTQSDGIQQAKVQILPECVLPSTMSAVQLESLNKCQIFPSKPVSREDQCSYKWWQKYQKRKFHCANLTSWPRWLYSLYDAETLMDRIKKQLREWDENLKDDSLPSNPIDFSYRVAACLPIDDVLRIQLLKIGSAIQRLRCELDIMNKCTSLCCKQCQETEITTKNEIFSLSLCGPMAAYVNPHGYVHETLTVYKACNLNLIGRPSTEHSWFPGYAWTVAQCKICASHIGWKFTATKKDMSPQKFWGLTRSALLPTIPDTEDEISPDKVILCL
T2 sequence (Q9NWZ3 whole entry): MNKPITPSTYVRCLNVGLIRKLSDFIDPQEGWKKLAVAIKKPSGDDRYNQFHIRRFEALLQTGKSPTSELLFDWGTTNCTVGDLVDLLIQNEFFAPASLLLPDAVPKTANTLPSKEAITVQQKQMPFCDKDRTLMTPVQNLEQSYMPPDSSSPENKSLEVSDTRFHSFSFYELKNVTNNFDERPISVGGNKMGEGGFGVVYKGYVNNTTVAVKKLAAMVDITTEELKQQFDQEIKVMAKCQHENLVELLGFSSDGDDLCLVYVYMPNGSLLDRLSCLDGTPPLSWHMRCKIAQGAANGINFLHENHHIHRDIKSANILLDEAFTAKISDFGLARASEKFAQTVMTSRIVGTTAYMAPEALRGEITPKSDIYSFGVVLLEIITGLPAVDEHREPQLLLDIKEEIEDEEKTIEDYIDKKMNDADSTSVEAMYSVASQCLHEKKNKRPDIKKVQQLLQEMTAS
T3 sequence (Q9HC35+Q9UM73 fused): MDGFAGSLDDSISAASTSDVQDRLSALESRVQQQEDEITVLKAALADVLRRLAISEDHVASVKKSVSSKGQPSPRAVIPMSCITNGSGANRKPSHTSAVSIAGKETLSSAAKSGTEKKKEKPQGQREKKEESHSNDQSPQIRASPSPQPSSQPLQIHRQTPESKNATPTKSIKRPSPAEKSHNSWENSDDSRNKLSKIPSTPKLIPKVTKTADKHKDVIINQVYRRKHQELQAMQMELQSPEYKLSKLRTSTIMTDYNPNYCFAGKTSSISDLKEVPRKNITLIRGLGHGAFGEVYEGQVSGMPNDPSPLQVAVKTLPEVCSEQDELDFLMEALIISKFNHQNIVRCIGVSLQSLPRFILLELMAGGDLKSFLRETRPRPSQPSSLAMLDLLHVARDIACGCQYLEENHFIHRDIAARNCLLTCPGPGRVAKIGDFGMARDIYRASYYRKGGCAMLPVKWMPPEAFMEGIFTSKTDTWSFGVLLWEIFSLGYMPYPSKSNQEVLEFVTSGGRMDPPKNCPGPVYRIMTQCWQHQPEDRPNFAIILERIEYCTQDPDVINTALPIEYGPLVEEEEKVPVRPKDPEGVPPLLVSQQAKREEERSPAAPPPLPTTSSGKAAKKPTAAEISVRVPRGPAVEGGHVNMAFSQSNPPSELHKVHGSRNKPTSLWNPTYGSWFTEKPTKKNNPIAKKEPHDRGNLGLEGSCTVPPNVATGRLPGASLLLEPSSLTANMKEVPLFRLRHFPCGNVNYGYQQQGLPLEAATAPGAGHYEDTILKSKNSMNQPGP
T3 sequence (Q96SW2 whole entry): as the sequence (Q96SW2 whole entry) above
T3 sequence (Q16531 whole entry partner): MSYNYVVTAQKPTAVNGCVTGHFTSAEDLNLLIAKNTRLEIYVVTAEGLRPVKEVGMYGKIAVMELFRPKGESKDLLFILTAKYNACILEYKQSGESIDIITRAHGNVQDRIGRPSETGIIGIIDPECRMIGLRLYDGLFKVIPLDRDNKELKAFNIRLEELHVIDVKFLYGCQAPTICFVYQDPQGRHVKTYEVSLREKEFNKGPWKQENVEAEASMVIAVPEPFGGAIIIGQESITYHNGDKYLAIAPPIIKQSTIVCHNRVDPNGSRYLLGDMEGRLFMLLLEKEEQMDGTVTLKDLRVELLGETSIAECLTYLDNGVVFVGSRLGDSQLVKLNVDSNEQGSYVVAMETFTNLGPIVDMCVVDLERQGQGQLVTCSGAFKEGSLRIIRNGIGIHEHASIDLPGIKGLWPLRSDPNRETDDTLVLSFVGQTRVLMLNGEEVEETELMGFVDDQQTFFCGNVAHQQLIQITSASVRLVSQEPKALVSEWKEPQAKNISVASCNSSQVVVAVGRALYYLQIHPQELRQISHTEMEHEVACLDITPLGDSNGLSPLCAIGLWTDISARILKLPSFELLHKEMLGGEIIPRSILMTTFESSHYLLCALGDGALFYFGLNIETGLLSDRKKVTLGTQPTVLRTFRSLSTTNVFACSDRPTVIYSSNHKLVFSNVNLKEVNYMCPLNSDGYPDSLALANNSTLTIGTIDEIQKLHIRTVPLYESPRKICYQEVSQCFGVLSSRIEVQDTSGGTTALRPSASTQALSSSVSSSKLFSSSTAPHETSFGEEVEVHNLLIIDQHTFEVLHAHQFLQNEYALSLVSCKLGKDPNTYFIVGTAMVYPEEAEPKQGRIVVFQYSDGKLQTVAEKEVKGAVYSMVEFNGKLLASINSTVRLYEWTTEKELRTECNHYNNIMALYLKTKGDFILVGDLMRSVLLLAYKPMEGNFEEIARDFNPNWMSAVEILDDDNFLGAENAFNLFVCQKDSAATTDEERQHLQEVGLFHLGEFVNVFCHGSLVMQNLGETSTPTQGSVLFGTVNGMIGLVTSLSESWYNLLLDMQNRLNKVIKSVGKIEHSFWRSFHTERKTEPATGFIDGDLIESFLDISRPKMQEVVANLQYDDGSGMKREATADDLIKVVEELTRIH

Compound | Degradation of substrate protein Tau (Tau) | inhibition at 0.5 µM [1] | inhibition at 2 µM [1] | Degradation of substrate protein AKT (AKT) | also measured
O=C1CCC(N2Cc3cc(CN4CCN(c5ccc(-c6ccc7c8cnccc8n(C(F)F)c7c6)cn5)CC4)ccc3C2=S)C(=O)N1 (stereo not shown) [GT-08979, 3-(5-((4-(5-(5-(difluoromethyl)-5H-pyrido[4,3-b]indol-7-yl)pyridin-2-yl)piperazin-1-yl)methyl)-1-thioxoisoindolin-2-yl)piperidine-2,6-dione] | A (0% ≤ substrate protein remaining % ≤ 80%) | 53 to 60% | 60 to 80% |  | 
C[C@H]1Oc2cc(cnc2N)-c2c(nn(C)c2C#N)CN(C)C(=O)c2ccc(F)cc21 [lorlatinib, reference compound] |  |  |  |  | IC50 (HCC827): > 10000 nM; IC50 (SR): > 10000 nM; inhibition at 0.01 µM (A375; A-375, 10 nM, read-out: Inhibition Rate at 10 nM (%)): 10 to 20%; inhibition at 0.5 µM (A375; A-375, 500 nM, read-out: Inhibition Rate at 500 nM (%)): 10 to 20%; inhibition at 0.01 µM (CFPAC-1; 10 nM, read-out: Inhibition Rate at 10 nM (%)): 10 to 20%; inhibition at 0.5 µM (CFPAC-1; 500 nM, read-out: Inhibition Rate at 500 nM (%)): 20 to 30%; inhibition at 0.01 µM (MCF-7; MCF7, 10 nM, read-out: Inhibition Rate at 10 nM (%)): 10 to 20%; inhibition at 0.5 µM (MCF-7; MCF7, 500 nM, read-out: Inhibition Rate at 500 nM (%)): 20 to 30%; inhibition at 0.01 µM (MM.1S; Table I-2, ALK inhibitors): -5 to 0%; inhibition at 0.5 µM (MM.1S; Table I-2, ALK inhibitors): -20 to -10%; inhibition at 0.01 µM (MV-4-11; MV4-11, 10 nM, read-out: Inhibition Rate at 10 nM (%)): -20 to -10%; inhibition at 0.5 µM (MV-4-11; MV4-11, 500 nM, read-out: Inhibition Rate at 500 nM (%)): -5 to 0%
CC(C)(O)c1cc2nn(C3CCN(Cc4ccc5c(c4)CN(C4CCC(=O)NC4=O)C5=S)CC3)cc2cc1NC(=O)c1cccc(C(F)(F)F)n1 (stereo not shown) [GT-05297, N-(2-(1-((2-(2,6-dioxopiperidin-3-yl)-1-thioxoisoindolin-5-yl)methyl)piperidin-4-yl)-6-(2-hydroxypropan-2-yl)-2H-indazol-5-yl)-6-(trifluoromethyl)picolinamide] |  | 60 to 80% | 80 to 100% |  | Degradation of substrate protein IRAK4 (IRAK4): A (0% ≤ substrate protein remaining % ≤ 80%)
Cn1ncc(Cl)c1-c1cc(C(=O)N[C@H](CNCc2ccc3c(c2)CN(C2CCC(=O)NC2=O)C3=S)Cc2ccc(F)c(F)c2)oc1Cl (stereo partly drawn) [GT-08895, 5-chloro-4-(4-chloro-1-methyl-1H-pyrazol-5-yl)-N-((2S)-1-(3,4-difluorophenyl)-3-(((2-(2,6-dioxopiperidin-3-yl)-1-thioxoisoindolin-5-yl)methyl)amino)propan-2-yl)furan-2-carboxamide] |  | 30 to 40% | 60 to 80% | A (0% ≤ substrate protein remaining % ≤ 80%) | inhibition at 0.01 µM (MM.1S; Table I-14, AKT inhibitors): 30 to 40%; inhibition at 0.5 µM (MM.1S; Table I-14, AKT inhibitors): 50 to 60%
Cn1ncc(Cl)c1-c1cc(C(=O)N[C@@H](Cc2ccc(F)c(F)c2)CN2CCN(Cc3ccc4c(c3)CN(C3CCC(=O)NC3=O)C4=S)CC2)oc1Cl (stereo partly drawn) [GT-08896, 5-chloro-4-(4-chloro-1-methyl-1H-pyrazol-5-yl)-N-((2S)-1-(3,4-difluorophenyl)-3-(4-((2-(2,6-dioxopiperidin-3-yl)-1-thioxoisoindolin-5-yl)methyl)piperazin-1-yl)propan-2-yl)furan-2-carboxamide] |  | 53 to 60% | 80 to 100% | A (0% ≤ substrate protein remaining % ≤ 80%) | 
O=C1CCC(N2Cc3cc(CN4CCN(c5ccn6c(n5)nc5ccccc56)CC4)ccc3C2=S)C(=O)N1 (stereo not shown) [GT-08981, 3-(5-((4-(benzo[4,5]imidazo[1,2-a]pyrimidin-2-yl)piperazin-1-yl)methyl)-1-thioxoisoindolin-2-yl)piperidine-2,6-dione] | A (0% ≤ substrate protein remaining % ≤ 80%) | 60 to 80% | 80 to 100% |  | 
CCc1cc2c(cc1N1CCC(N3CCN(Cc4ccc5c(c4)C(=S)N(C4CCC(=O)NC4=O)C5)CC3)CC1)C(C)(C)c1[nH]c3cc(C#N)ccc3c1C2=O (stereo not shown) [GT-05030, 8-(4-(4-((2-(2,6-dioxopiperidin-3-yl)-3-thioxoisoindolin-5-yl)methyl)piperazin-1-yl)piperidin-1-yl)-9-ethyl-6,6-dimethyl-11-oxo-6,11-dihydro-5H-benzo[b]carbazole-3-carbonitrile] |  | 60 to 80% | 60 to 80% |  | IC50 (HCC827): 500 to 1000 nM; IC50 (SR): 10 to 20 nM; Degradation of substrate protein ALK (ALK): A (0% ≤ substrate protein remaining % ≤ 80%)
Cn1ncc(Cl)c1-c1cc(C(=O)N[C@@H](Cc2cccc(F)c2)CN2CCN(Cc3ccc4c(c3)CN(C3CCC(=O)NC3=O)C4=S)CC2)sc1Cl (stereo partly drawn) [GT-08897, 5-chloro-4-(4-chloro-1-methyl-1H-pyrazol-5-yl)-N-((2S)-1-(4-((2-(2,6-dioxopiperidin-3-yl)-1-thioxoisoindolin-5-yl)methyl)piperazin-1-yl)-3-(3-fluorophenyl)propan-2-yl)thiophene-2-carboxamide] |  | 60 to 80% | 60 to 80% | A (0% ≤ substrate protein remaining % ≤ 80%) | 
CC(=O)N1CCCN(c2nc(NCCc3cccs3)nc(N3CCN(Cc4ccc5c(c4)CN(C4CCC(=O)NC4=O)C5=S)CC3)n2)CC1 (stereo not shown) [GT-08867, 3-(5-((4-(4-(4-acetyl-1,4-diazepan-1-yl)-6-((2-(thiophen-2-yl)ethyl)amino)-1,3,5-triazin-2-yl)piperazin-1-yl)methyl)-1-thioxoisoindolin-2-yl)piperidine-2,6-dione] | A (0% ≤ substrate protein remaining % ≤ 80%) | 53 to 60% | 80 to 100% |  | 
